Molecular target: T1, band 3 (Homo sapiens, UniProt P02730)
T1 sequence (P02730 1-911): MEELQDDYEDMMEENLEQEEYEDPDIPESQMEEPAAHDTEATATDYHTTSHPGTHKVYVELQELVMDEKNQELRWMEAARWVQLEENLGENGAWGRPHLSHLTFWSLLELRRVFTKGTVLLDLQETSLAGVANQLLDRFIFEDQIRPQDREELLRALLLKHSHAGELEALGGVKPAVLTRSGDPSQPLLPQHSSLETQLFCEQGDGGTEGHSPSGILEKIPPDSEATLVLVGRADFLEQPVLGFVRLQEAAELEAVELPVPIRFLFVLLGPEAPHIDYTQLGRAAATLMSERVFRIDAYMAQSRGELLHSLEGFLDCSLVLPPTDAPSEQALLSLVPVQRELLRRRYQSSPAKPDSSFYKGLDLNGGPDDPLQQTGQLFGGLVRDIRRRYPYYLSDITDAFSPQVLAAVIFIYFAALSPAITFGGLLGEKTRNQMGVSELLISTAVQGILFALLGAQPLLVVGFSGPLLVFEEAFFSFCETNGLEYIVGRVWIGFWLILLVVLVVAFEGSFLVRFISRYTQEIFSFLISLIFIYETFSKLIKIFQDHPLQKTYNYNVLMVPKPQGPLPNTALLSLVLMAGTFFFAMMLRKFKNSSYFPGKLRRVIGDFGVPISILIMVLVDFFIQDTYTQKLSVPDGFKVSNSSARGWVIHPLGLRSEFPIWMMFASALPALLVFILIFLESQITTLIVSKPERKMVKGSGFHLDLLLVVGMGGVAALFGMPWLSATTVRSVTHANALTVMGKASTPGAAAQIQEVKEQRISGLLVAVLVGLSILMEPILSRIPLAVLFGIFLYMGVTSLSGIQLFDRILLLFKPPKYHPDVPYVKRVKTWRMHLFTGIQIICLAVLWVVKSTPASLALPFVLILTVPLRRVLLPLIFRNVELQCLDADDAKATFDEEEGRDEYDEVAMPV
Assay: 36Cl exchange flux inhibition in red blood cells, Dixon plots
Format: cell-based
Settings: for ID50 for iodide in the medium with low Cl- concentration: 0°C; for DS·Clo (Dixon slope times [Clo]) / Dixon slope (DS) for Io inhibition of Cl- exchange / High/low: DS·Clo at the highest [Clo] divided by that at the given [Clo]: sucrose

With `[I-].[K+]` [iodide, potassium iodide] the “ID50 for iodide in the medium with low Cl- concentration” value (“ID50 for iodide in the medium” for short) (exp 60, pHo 7.2, Hepes, Cli 129 mM, low Clo 2.0 mM) was 2.77 mM, the “DS·Clo (Dixon slope times [Clo])” value (exp 60, pHo 7.2, Clo 2 mM) was 0.0823 and the “Dixon slope (DS) for Io inhibition of Cl- exchange” value (exp 60, pHo 7.2, Clo 2 mM) was 0.0412. For the same compound, the “High/low: DS·Clo at the highest [Clo] divided by that at the given [Clo]” value (exp 60, pHo 7.2, Clo 2 mM) was 4.69, the “DS·Clo (Dixon slope times [Clo])” value (exp 60, pHo 7.2, Clo 150 mM) was 0.386 and the “Dixon slope (DS) for Io inhibition of Cl- exchange” value (exp 60, pHo 7.2, Clo 150 mM) was 0.00257. For the same compound, the “ID50 for iodide in the medium” value (exp 60, pHo 10.7, CHES, Cli 129 mM, low Clo 2.0 mM) was 12.9 mM, the “DS·Clo (Dixon slope times [Clo])” value (exp 60, pHo 10.7, Clo 2 mM) was 0.1169 and the “Dixon slope (DS) for Io inhibition of Cl- exchange” value (exp 60, pHo 10.7, Clo 2 mM) was 0.0584. The “High/low: DS·Clo at the highest [Clo] divided by that at the given [Clo]” value (exp 60, pHo 10.7, Clo 2 mM) was 1.79, the “DS·Clo (Dixon slope times [Clo])” value (exp 60, pHo 10.7, Clo 150 mM) was 0.2096 and the “Dixon slope (DS) for Io inhibition of Cl- exchange” value (exp 60, pHo 10.7, Clo 150 mM) was 0.0014. For the same compound, the “ID50 for iodide in the medium” value (exp 60a, pHo 7.2, Hepes, Cli 149 mM, low Clo 1.0 mM) was 2.44 mM, the “DS·Clo (Dixon slope times [Clo])” value (exp 60a, pHo 7.2, Clo 1 mM) was 0.0509 and the “Dixon slope (DS) for Io inhibition of Cl- exchange” value (exp 60a, pHo 7.2, Clo 1 mM) was 0.0509. The “High/low: DS·Clo at the highest [Clo] divided by that at the given [Clo]” value (exp 60a, pHo 7.2, Clo 1 mM) was 6.67, the “DS·Clo (Dixon slope times [Clo])” value (exp 60a, pHo 7.2, Clo 150 mM) was 0.339 and the “Dixon slope (DS) for Io inhibition of Cl- exchange” value (exp 60a, pHo 7.2, Clo 150 mM) was 0.00226. For the same compound, the “ID50 for iodide in the medium” value (exp 60a, pHo 10.7, CHES, Cli 149 mM, low Clo 2.0 mM) was 22.6 mM, the “DS·Clo (Dixon slope times [Clo])” value (exp 60a, pHo 10.7, Clo 2 mM) was 0.1078 and the “Dixon slope (DS) for Io inhibition of Cl- exchange” value (exp 60a, pHo 10.7, Clo 2 mM) was 0.0539. For the same compound, the “High/low: DS·Clo at the highest [Clo] divided by that at the given [Clo]” value (exp 60a, pHo 10.7, Clo 2 mM) was 2.13, the “DS·Clo (Dixon slope times [Clo])” value (exp 60a, pHo 10.7, Clo 150 mM) was 0.2300 and the “Dixon slope (DS) for Io inhibition of Cl- exchange” value (exp 60a, pHo 10.7, Clo 150 mM) was 0.00153. For the same compound, the “ID50 for iodide in the medium” value (exp 61, pHo 11.6, CAPS, Cli 131 mM, low Clo 50 mM) was 34.9 mM, the “DS·Clo (Dixon slope times [Clo])” value (exp 61, pHo 11.6, Clo 50 mM) was 0.2858 and the “Dixon slope (DS) for Io inhibition of Cl- exchange” value (exp 61, pHo 11.6, Clo 50 mM) was 0.00572. For the same compound, the “High/low: DS·Clo at the highest [Clo] divided by that at the given [Clo]” value (exp 61, pHo 11.6, Clo 50 mM) was 0.94, the “DS·Clo (Dixon slope times [Clo])” value (exp 61, pHo 11.6, Clo 150 mM) was 0.2682 and the “Dixon slope (DS) for Io inhibition of Cl- exchange” value (exp 61, pHo 11.6, Clo 150 mM) was 0.00179. The “ID50 for iodide in the medium” value (exp 61a, pHo 11.6, CAPS, Cli 144 mM, low Clo 28 mM) was 46.6 mM, the “DS·Clo (Dixon slope times [Clo])” value (exp 61a, pHo 11.6, Clo 27.5 mM) was 0.2089 and the “Dixon slope (DS) for Io inhibition of Cl- exchange” value (exp 61a, pHo 11.6, Clo 27.5 mM) was 0.0076. The “High/low: DS·Clo at the highest [Clo] divided by that at the given [Clo]” value (exp 61a, pHo 11.6, Clo 27.5 mM) was 0.77, the “DS·Clo (Dixon slope times [Clo])” value (exp 61a, pHo 11.6, Clo I10 mM) was 0.1613 and the “Dixon slope (DS) for Io inhibition of Cl- exchange” value (exp 61a, pHo 11.6, Clo I10 mM) was 0.00147. The “ID50 for iodide in the medium” value (exp 64, pHo 8.66, CHES, Cli 138 mM, low Clo 0.9 mM) was 3.06 mM, the “ID50 for iodide in the medium” value (exp 64, pHo 9.9, CHES, Cli 138 mM, low Clo 2.2 mM) was 7.48 mM and the “ID50 for iodide in the medium” value (exp 64a, pHo 8.66, CHES, Cli 137 mM, low Clo 0.9 mM) was 2.24 mM. For the same compound, the “ID50 for iodide in the medium” value (exp 64a, pHo 9.9, CHES, Cli 137 mM, low Clo 2.2 mM) was 7.57 mM, the “ID50 for iodide in the medium” value (exp 67, pHo 8.5, CHES, Cli 144 mM, low Clo 0.6 mM) was 2.18 mM and the “ID50 for iodide in the medium” value (exp 70, pHo 7.2, Hepes, Cli 147 mM, low Clo 0.6 mM) was 1.47 mM. The “DS·Clo (Dixon slope times [Clo])” value (exp 70, pHo 7.2, Clo 0.59 mM) was 0.0584, the “Dixon slope (DS) for Io inhibition of Cl- exchange” value (exp 70, pHo 7.2, Clo 0.59 mM) was 0.0996 and the “High/low: DS·Clo at the highest [Clo] divided by that at the given [Clo]” value (exp 70, pHo 7.2, Clo 0.59 mM) was 5.52. The “DS·Clo (Dixon slope times [Clo])” value (exp 70, pHo 7.2, Clo 110 mM) was 0.322, the “Dixon slope (DS) for Io inhibition of Cl- exchange” value (exp 70, pHo 7.2, Clo 110 mM) was 0.00293 and the “ID50 for iodide in the medium” value (exp 70, pHo 8.5, CHES, Cli 147 mM, low Clo 0.6 mM) was 1.82 mM. The “ID50 for iodide in the medium” value (exp 72, pHo 8.0, Hepes, Cli 129 mM, low Clo 0.9 mM) was 1.82 mM, the “ID50 for iodide in the medium” value (exp 72, pHo 9.2, CHES, Cli 129 mM, low Clo 0.9 mM) was 4.19 mM and the “ID50 for iodide in the medium” value (exp 74, pHo 8.5, CHES, Cli 156 mM, low Clo 1.1 mM) was 2.10 mM. The “ID50 for iodide in the medium” value (exp 80, pHo 9.2, CHES, Cli 142 mM, low Clo 0.9 mM) was 3.88 mM, the “ID50 for iodide in the medium” value (exp 81, pHo 8.5, Hepes, Cli 142 mM, low Clo 0.6 mM) was 2.31 mM and the “ID50 for iodide in the medium” value (exp 81, pHo 10, CHES, Cli 142 mM, low Clo 1.7 mM) was 7.81 mM. The “ID50 for iodide in the medium” value (exp 82, pHo 10, CHES, Cli 138 mM, low Clo 1.7 mM) was 9.85 mM, the “ID50 for iodide in the medium” value (exp 82, pHo 10.6, CHES, Cli 138 mM, low Clo 1.7 mM) was 19.8 mM and the “ID50 for iodide in the medium” value (exp 83, pHo 10, CHES, Cli 129 mM, low Clo 1.7 mM) was 6.58 mM.

— PMC2219267 (The Journal of General Physiology, 1996)
